Measured values: patent US8889874B2, “Imidazolone-chalcone derivatives as potential anticancer agent and process for the preparation thereof” (Council of Scientific and Industrial Research, priority 2010, dated 2014)

Legend:
Format in all cases: cell-based, human
[1] = tested on: A549/ATCC (non-small cell lung); test: NCI anticancer screen, SRB assay, 48 h
Method in brief: (§1)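 Sulforhodamine B protein assay read cell growth after 48 h of continuous compound exposure. Dose-response curves per cell line used at least five 10-fold-diluted concentrations, within a panel of fifty-three human lines from nine tumour types.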

CAKI-1 (renal) = test: NCI anticancer screen, SRB assay, 48 h
Method in brief: as §1

HCC-2998 (colon) = test: NCI anticancer screen, SRB assay, 48 h
Method in brief: as §1

HCT-116 (colon) = test: NCI anticancer screen, SRB assay, 48 h
Method in brief: as §1

HCT-15 (colon) = test: NCI anticancer screen, SRB assay, 48 h
Method in brief: as §1

MDA-MB-435 (melanoma) = test: NCI anticancer screen, SRB assay, 48 h
Method in brief: as §1

[2] = tested on: NCI-H226 (non-small cell lung); test: NCI anticancer screen, SRB assay, 48 h
Method in brief: as §1

NCI/ADR-RES (ovarian) = test: NCI anticancer screen, SRB assay, 48 h
Method in brief: as §1

OVCAR-4 (ovarian) = test: NCI anticancer screen, SRB assay, 48 h
Method in brief: as §1

[3] = tested on: RPMI-8226 (leukemia cell line); test: NCI anticancer screen, SRB assay, 48 h
Method in brief: as §1

SK-MEL-5 (melanoma) = test: NCI anticancer screen, SRB assay, 48 h
Method in brief: as §1

SN12C (renal) = test: NCI anticancer screen, SRB assay, 48 h
Method in brief: as §1

SNB-19 (CNS) = test: NCI anticancer screen, SRB assay, 48 h
Method in brief: as §1

TD-47D (breast) = test: NCI anticancer screen, SRB assay, 48 h
Method in brief: as §1

TK-10 (renal) = test: NCI anticancer screen, SRB assay, 48 h
Method in brief: as §1

U251 (CNS) = test: NCI anticancer screen, SRB assay, 48 h
Method in brief: as §1

UACC-257 (melanoma) = test: NCI anticancer screen, SRB assay, 48 h
Method in brief: as §1

Breast cancer cell lines = test: NCI anticancer screen, SRB assay, panel summary
Method in brief: as §1

CNS cancer cell lines = test: NCI anticancer screen, SRB assay, panel summary; conditions: CNS panel
Method in brief: as §1

Colon cancer cell lines = test: NCI anticancer screen, SRB assay, panel summary; conditions: Colon panel
Method in brief: as §1

[4] = tested on: Leukemia cancer cell lines; test: NCI anticancer screen, SRB assay, panel summary; conditions: Leukemia panel
Method in brief: as §1

[5] = tested on: Melanoma cancer cell lines; test: NCI anticancer screen, SRB assay, panel summary; conditions: Melanoma panel
Method in brief: as §1

[6] = tested on: Non-small cell lung cancer cell lines; test: NCI anticancer screen, SRB assay, panel summary
Method in brief: as §1

[7] = tested on: Ovarian cancer cell lines; test: NCI anticancer screen, SRB assay, panel summary; conditions: Ovarian panel
Method in brief: as §1

[8] = tested on: Prostate cancer cell lines; test: NCI anticancer screen, SRB assay, panel summary
Method in brief: as §1

Renal cancer cell lines = test: NCI anticancer screen, SRB assay, panel summary
Method in brief: as §1

[9] = 48 h exposure, SRB, read-out: GI50
[10] = log of concentration in mol/L causing 50% inhibition of net cell growth
[11] = log of concentration leading to 50% net cell death
[12] = log of concentration resulting in total inhibition of net cell growth

SMILES: COc1ccc(-c2cn(-c3cccc(C(=O)/C=C/c4cc(OC)c(OC)c(OC)c4)c3)c(=O)[nH]2)cc1 [5b, 4-(4-methoxyphenyl)-1-3-[(E)-3-(3,4,5-trimethoxyphenyl)-2-propenoyl]phenyl-2,3-dihydro-1H-2-imidazolone]
- pGI50 (-log of molar concentration causing 50% inhibition of net cell growth) [1]: 4.93
- GI50 [1, 9]: 11.8 µM
- pGI50 (-log of molar concentration causing 50% inhibition of net cell growth) (CAKI-1 (renal)): 5.52
- GI50 (CAKI-1 (renal); [9]): 3.05 µM
- pGI50 (-log of molar concentration causing 50% inhibition of net cell growth) (HCC-2998 (colon)): 5.79
- GI50 (HCC-2998 (colon); [9]): 1.64 µM
- pGI50 (-log of molar concentration causing 50% inhibition of net cell growth) (HCT-116 (colon)): 6.43
- GI50 (HCT-116 (colon); [9]): 0.37 µM
- pGI50 (-log of molar concentration causing 50% inhibition of net cell growth) (HCT-15 (colon)): 5.86
- GI50 (HCT-15 (colon); [9]): 1.38 µM
- pGI50 (-log of molar concentration causing 50% inhibition of net cell growth) (MDA-MB-435 (melanoma)): 5.73
- GI50 (MDA-MB-435 (melanoma); [9]): 1.86 µM
- pGI50 (-log of molar concentration causing 50% inhibition of net cell growth) [2]: 4.45
- GI50 [2, 9]: 35.2 µM
- pGI50 (-log of molar concentration causing 50% inhibition of net cell growth) (NCI/ADR-RES (ovarian); NCI/ADR-RES): 5.77
- GI50 (NCI/ADR-RES (ovarian); NCl/ADR-RES, 48 h exposure, SRB, read-out: GI50): 1.7 µM
- pGI50 (-log of molar concentration causing 50% inhibition of net cell growth) (OVCAR-4 (ovarian)): 5.45
- GI50 (OVCAR-4 (ovarian); [9]): 3.57 µM
- pGI50 (-log of molar concentration causing 50% inhibition of net cell growth) [3]: 6.04
- GI50 [3, 9]: 0.92 µM
- pGI50 (-log of molar concentration causing 50% inhibition of net cell growth) (SK-MEL-5 (melanoma)): 5.69
- GI50 (SK-MEL-5 (melanoma); [9]): 2.03 µM
- pGI50 (-log of molar concentration causing 50% inhibition of net cell growth) (SN12C (renal); SN 12C): 5.46
- GI50 (SN12C (renal); SN12C, 48 h exposure, SRB, read-out: GI50): 3.5 µM
- pGI50 (-log of molar concentration causing 50% inhibition of net cell growth) (SNB-19 (CNS)): 5.36
- GI50 (SNB-19 (CNS); [9]): 4.38 µM
- pGI50 (-log of molar concentration causing 50% inhibition of net cell growth) (TD-47D (breast)): 5.42
- GI50 (TD-47D (breast); [9]): 3.84 µM
- pGI50 (-log of molar concentration causing 50% inhibition of net cell growth) (TK-10 (renal)): 5.52
- GI50 (TK-10 (renal); [9]): 3.04 µM
- pGI50 (-log of molar concentration causing 50% inhibition of net cell growth) (U251 (CNS)): 6.06
- GI50 (U251 (CNS); [9]): 0.88 µM
- pGI50 (-log of molar concentration causing 50% inhibition of net cell growth) (UACC-257 (melanoma)): 5.52
- GI50 (UACC-257 (melanoma); [9]): 3.04 µM
- mean graph midpoint (MG_MID) of Log10 LC50 (Breast cancer cell lines): 4.91
- mean graph midpoint (MG_MID) of Log10 GI50 (Breast cancer cell lines; Breast panel, log of concentration in mol/L causing 50% inhibition of net cell growth): 5.61
- mean graph midpoint (MG_MID) of Log10 TGI (Breast cancer cell lines; Breast panel, log of concentration resulting in total inhibition of net cell growth): 4.86
- mean graph midpoint (MG_MID) of Log10 GI50 (CNS cancer cell lines; [10]): 5.54
- mean graph midpoint (MG_MID) of Log10 LC50 (CNS cancer cell lines; [11]): 4.55
- mean graph midpoint (MG_MID) of Log10 TGI (CNS cancer cell lines; [12]): 5.01
- mean graph midpoint (MG_MID) of Log10 GI50 (Colon cancer cell lines; [10]): 5.95
- mean graph midpoint (MG_MID) of Log10 LC50 (Colon cancer cell lines; [11]): 5.13
- mean graph midpoint (MG_MID) of Log10 TGI (Colon cancer cell lines; [12]): 5.58
- mean graph midpoint (MG_MID) of Log10 GI50 [4, 10]: 5.96
- mean graph midpoint (MG_MID) of Log10 TGI [4, 12]: 4.00
- mean graph midpoint (MG_MID) of Log10 GI50 [5, 10]: 5.72
- mean graph midpoint (MG_MID) of Log10 LC50 [5, 11]: 4.58
- mean graph midpoint (MG_MID) of Log10 TGI [5, 12]: 5.25
- mean graph midpoint (MG_MID) of Log10 LC50 [6]: 4.82
- mean graph midpoint (MG_MID) of Log10 GI50 ([6]; Non-small cell lung panel, log of concentration in mol/L causing 50% inhibition of net cell growth): 5.30
- mean graph midpoint (MG_MID) of Log10 TGI ([6]; Non-small cell lung panel, log of concentration resulting in total inhibition of net cell growth): 4.66
- mean graph midpoint (MG_MID) of Log10 GI50 [7, 10]: 5.58
- mean graph midpoint (MG_MID) of Log10 LC50 [7, 11]: 4.41
- mean graph midpoint (MG_MID) of Log10 TGI [7, 12]: 4.83
- mean graph midpoint (MG_MID) of Log10 GI50 [8, 10]: 5.21
- mean graph midpoint (MG_MID) of Log10 TGI [8, 12]: 4.41
- mean graph midpoint (MG_MID) of Log10 LC50 (Renal cancer cell lines): 4.46
- mean graph midpoint (MG_MID) of Log10 GI50 (Renal cancer cell lines; Renal panel, log of concentration in mol/L causing 50% inhibition of net cell growth): 5.60
- mean graph midpoint (MG_MID) of Log10 TGI (Renal cancer cell lines; Renal panel, log of concentration resulting in total inhibition of net cell growth): 5.12
